{"source": "patent US20040259942A1", "about": "“Modulation of stat activity” (priority 2001, published 2004)", "key": {"murine STAT3": {"tested_on": "murine STAT3", "assay": "STAT3-dependent luciferase reporter (SIE2-luc) in transfected COS-1 cells", "assay_type": "cell-based", "settings": "COS-1 cells transfected with murine STAT3", "experimental": "(c) COS-1 cells were transfected with an expression vector for STAT3, a STAT3-responsive luciferase reporter (SIE2-luc) and a control gene for β-galactosidase. […] After 6 hours cells were harvsted and reporter gene expression analysed. Results are normalised against β-galactosidase values and expressed as averages +/−SD (n=3)."}, "BR293 cells [1]": {"tested_on": "BR293 cells", "assay": "Cell proliferation assay (cell counting)", "assay_type": "cell-based, human", "settings": "for growth of cultured cells (confluence): full medium, 48 h, 100 μM (FIG. 16a)", "description": "Equal numbers of BR293 and MDA-MB-468 cells were seeded in MEM containing 10% FCS into 10 cm dishes. […]. For the 48 time points, fresh medium containing the appropriate inhibitor was applied to the cells after 24 hours. Controls were allowed to grow for 48 hours in the absence of inhibitor. Thereafter, all the cells were washed twice with ice cold PBS, harvested and counted under a phase-contrast microscope. Values are expressed as averages+S.D. (n=3).\nEqual numbers of BR293, MCF-10F, MCF-7, MDA-MB-468, HKEK293 and COS1 cells were seeded in the appropriate growth medium into 10 cm dishes. Cells were allowed to grow in the presence of various concentrations of OdDHL or OHHL for 24 or 48 hours. For the 48-hour time points, fresh medium containing the appropriate inhibitor was applied to the cells after 24 hours. Controls were allowed to grow for 48 hours in the absence of inhibitor. Thereafter, all the cells were washed twice with ice cold PBS, harvested and counted under a phase-contrast microscope. Values are expressed as averages ±S.D. (n=3)."}, "Akt/PKB": {"tested_on": "Akt/PKB", "assay": "Akt/PKB S473 phosphorylation in serum-stimulated cells (P13K survival pathway)", "assay_type": "cell-based, human", "settings": "for Akt/PKB phosphorylation in serum-stimulated cells: BR293, MCF-7 and MDA-MB-468 cells, Wortmannin 200 nM, AHLs 100 μM", "description": "Cell lysates were then prepared and analysed by Western blotting for Akt/PKB phosphorylation with an antibody specific for Akt/PKB phosphorylated on S473 (p-Akt, upper panel) and subsequently for total Akt/PKB content with an antibody for Akt/PKB (lower panel).\nIn the bottom section of FIG. 21, BR293 cells were serum-starved (lane 1) or starved and stimulated with 10% FCS for 2 hours alone (lane 2) or in the presence of increasing concentrations of OdDHL (lanes 3-6) or 100 μM OHHL (lane 7) or 200 nM Wortmannin (lane 8). Cell lysates were prepared and analysed by Western blotting for Akt/PKB phosphorylation with an antibody specific for Akt/PKB phosphorylated on S473 (upper panel) and subsequently for total Alt/PKB content with an antibody for Akt/PKB (lower panel)."}, "ERKs": {"tested_on": "ERKs", "assay": "ERK phosphorylation (Western blotting)", "assay_type": "cell-based, human", "settings": "for activation of ERKs by TPA (phosphorylation of ERK½): BR293 cells; for activation of ERKs in response to serum: result not shown", "description": "ERKs are unaffected by OdDHL (a) BR293 cells were serum-starved (lane 1) or starved and stimulated with TPA for 30 min alone (lane 2) or in the presence of increasing concentrations of OdDHL (lanes 3-6) or 100 μM OHHL (lane 7). Cell lysates were prepared and analysed by Western blotting for ERK phosphorylation with an antibody specific for phospho-ERK½ (upper panel) and for ERK content with an antibody against ERKs (lower panel). (b) BR293 cells were serum-starved (lane 1) or starved and stimulated with Anisomycin for 30 min alone (lane 2) or in the presence of increasing concentrations of OdDHL (lanes 3-6) or 100 μM OHHL (lane 7). Cell lysates were prepared and analysed by Western blotting for JNK/SAPK phosphorylation with an antibody specific for phospho-JNKs (upper panel) and for SAPK/JNK content with an antibody against JNKs (lower panel). (c) BR293 cells were treated as described in (b) and lysates were analysed by Western blotting for p38^MAPK phosphorylation with an antibody specific for phospho-p38 (upper panel) and for p38 content with an antibody against p38 (lower panel)."}, "BR293 cells [2]": {"tested_on": "BR293 cells", "assay": "DAPI staining, fluorescence microscopy (apoptosis)", "assay_type": "cell-based, human", "settings": "full medium (10% FCS); 24 h", "description": "OdDHL blocks BC cell oroliferation and induces apoptosis. BR293 cells were grown in full medium (10% FCS) in the absence or presence of OdDHL or the control OHHL. After 24 h, cell were harvested, stained with DAPI and examined by fluorescence microscopy."}, "STAT3": {"tested_on": "STAT3", "assay": "Serum-induced STAT3 tyrosine phosphorylation (immunoblot)", "assay_type": "cell-based, human", "description": "(§1) For immunoprecipitation and immunoblotting experiments, cells were grown to confluence in 10 cm dishes and maintained in full medium or starved in serum-free medium overnight before the application of appropriate stimuli. Lysates were prepared in TBSN buffer (50 mM Tris-HCl pH7.5, 150 mM NaCl, 1 mM EDTA, 1% NP-40) supplemented with protease inhibitors (1 mM Na3 VO4, 10 mM Na4P2O7, 10 mM NaF, 5 mM EGTA, 10 mM Benzamidine, 0.2 mM PMSF and 1 μg/ml each of leupeptin, aprotinin, pepstatin). Lysates were cleared by centrifugation at 16,000×g for 10 minutes and used directly for immunoprecipitations or stored at −20° C. for further use.\nEqual amounts of lysates were incubated with the appropriate antibody for 2 hours at 4° C.\nImmune complexes were then allowed to bind to protein A-Sepharose beads for 1 hour at 4° C. and collected by centrifugation. Immunoprecipitates were washed three times in 100 mM Tris-HC1 pH 7.5, […], 1 mM EDTA, 0.1 mM PMSF, 0.5% NP-40. Thereafter, samples were taken up in sodium dodecyl sulphate (SDS) loading buffer and boiled for 5 min.\nSamples were separated by electrophoresis through 6% polyacrylamide-SDS gels. Proteins were then transferred to polyvinylidene difluoride (PVDF) membranes with a semi-dry electroblotting apparatus. The membranes were incubated with appropriate primary antibodies at room temperature for 1 hour or 4° C. overnight according to suppliers' instructions, washed and stained with horseradish peroxidase-coupled secondary antibodies. The membranes were developed with an enhanced chemiluminescence kit (Amersham).\nas §1, with “Na3VO4,” for “Na3 VO4,”, “aprotinin and” for “aprotinin,”, “use. AG490 was purchased from Sigma; PD153035 was provided by Glaxo-Smith-Kline and PD168393 was purchased from Calbiochem.” for “use.”\nEqual amounts of lysates were incubated with the appropriate antibody for 2 hours at 4° C. Immune complexes were then allowed to bind to protein A-Sepharose beads for 1 hour at 4° C. and collected by centrifugation. Immunoprecipitates were washed three times in 10 mM Tris-HCl pH 7.5, 100 mM NaCl, 1 mM EDTA, 0.1 mM PMSF, 0.5% NP-40. Thereafter, samples were taken up in sodium dodecyl sulphate (SDS) loading buffer and boiled for 5 min."}}, "data": [{"compound": "CCCC(=O)CC(=O)N[C@H]1CCOC1=O", "note": "[OHHL, N-(3-oxohexanoyl)-L-homoserine lactone, reference compound]", "values": [{"measurement": "EGF-stimulated STAT3-dependent reporter gene expression, effect of co-treatment", "setting": "murine STAT3", "value": "had no effect"}, {"measurement": "growth of cultured cells (confluence)", "setting": "BR293 cells [1]", "value": "reached confluence in 48 hours"}, {"measurement": "Akt/PKB phosphorylation in serum-stimulated cells", "setting": "Akt/PKB", "value": "had no effect"}, {"measurement": "activation of ERKs by TPA (phosphorylation of ERK½)", "setting": "ERKs", "value": "Neither OdDHL nor OHHL had any effect"}, {"measurement": "activation of ERKs in response to serum", "setting": "ERKs", "value": "Neither OdDHL nor OHHL had any effect"}, {"measurement": "nuclear morphology / viability after DAPI staining", "setting": "BR293 cells [2]", "value": "remained viable"}, {"measurement": "effect on serum-induced STAT3 tyrosine phosphorylation", "setting": "STAT3; BR293 cells, 100 μM", "value": "only a slight effect"}]}, {"compound": "CCCCCCCCCC(=O)CC(=O)N[C@H]1CCOC1=O", "note": "[OdDHL, N-(3-oxo-dodecanoyl)-L-homoserine lactone]", "values": [{"measurement": "EGF-stimulated STAT3-dependent reporter gene expression, effect of co-treatment", "setting": "murine STAT3", "value": "augmented"}, {"measurement": "growth of cultured cells (confluence)", "setting": "BR293 cells [1]", "value": "grew poorly or not at all"}, {"measurement": "inhibition of proliferation", "setting": "BR293 cells [1]; over a 48-hour period", "value": "70%-80%"}, {"measurement": "Akt/PKB phosphorylation in serum-stimulated cells", "setting": "Akt/PKB", "value": "blocked phosphorylation of Akt/PKB to a similar degree as Wortmannin"}, {"measurement": "effective concentration for blocking Akt/PKB phosphorylation", "setting": "Akt/PKB; titration in BR293 cells", "value": "above 50 μM"}, {"measurement": "activation of ERKs by TPA (phosphorylation of ERK½)", "setting": "ERKs", "value": "Neither OdDHL nor OHHL had any effect"}, {"measurement": "activation of ERKs in response to serum", "setting": "ERKs", "value": "Neither OdDHL nor OHHL had any effect"}, {"measurement": "nuclear morphology / viability after DAPI staining", "setting": "BR293 cells [2]", "value": "induced DNA condensation and nuclear fragmentation"}, {"measurement": "STAT3 phosphorylation at sub-inhibitory concentration", "setting": "STAT3; BR293 cells, 50 μM OdDHL", "value": "small increase"}, {"measurement": "delayed STAT3 phosphorylation in response to serum", "setting": "STAT3; BR293 cells, 100 μM pretreatment (FIG. 18c)", "value": "prevented the delayed STAT3 phosphorylation in response to serum"}, {"measurement": "serum-induced phosphorylation of STAT3", "setting": "STAT3; BR293 cells, pre-incubation (FIG. 11 upper panel)", "value": "blocked the serum-induced phosphorylation of STAT3"}, {"measurement": "concentration at which serum-induced STAT3 tyrosine phosphorylation was inhibited", "setting": "STAT3; BR293 cells, pretreatment 15 minutes with increasing concentrations", "value": 100, "unit": "µM"}, {"measurement": "threshold concentration for inactivation of serum-induced STAT3 phosphorylation", "setting": "STAT3; FIG. 15", "value": "above 50 μM"}]}]}
